The values that follow are results of earlier work, collected in patent publication US11992559B2, “Microsphere formulations comprising lurasidone and methods for making and using the same” (Oakwood Laboratories, LLC, priority 2021, dated 2024).

Structures can show the parent of a compound that is named as a salt.

For data set [1] the following is noted: at 25° C.

As for `O=C1[C@@H]2[C@H]3CC[C@H](C3)[C@@H]2C(=O)N1C[C@@H]1CCCC[C@H]1CN1CCN(c2nsc3ccccc23)CC1` [lurasidone HCl, Lurasidone], the “solubility in benzyl alcohol” value (benzyl alcohol) was 69.19 mg/g. The solubility in dichloromethane (dichloromethane) was 24.43 mg/g. Besides, the water solubility (water) was 224 µg/mL. The “specific hydrophobicity log Pow” value in data set [1] is 5.6.
